Experimental data as given in US20260258330A1, “USE OF AT LEAST ONE […] A BEVERAGE, IN […] ALCOHOLIC BEVERAGE, AS A […] […]” (priority 2023, published 2026).
Where two headings read alike, the source gives them in different places.

Experiments:
Saccharomyces cerevisiae [1] = assay type: cell-based
Method: For this example, 10 mL of apple juice, grape juice or multifruit juice was inoculated with a strain of Saccharomyces cerevisiae at 60,000 cells per mL, that is a deposit of 17 μL of inoculum per 10 ml tube for Ci at T0=[…].
These inoculated juices were incubated statically at 20° C., under subdued light, after having been pre-treated as follows: • 1. Untreated (Negative control) • 2. […] Ethanol 2.37% • 4. Ethanol 4.74% • 5. 100 ppm Chitosan • 6. 9 ppm Amphidinol 18 (AM18) • 7. 18 ppm Amphidinol 18 (AM18) • 8. 36 ppm Amphidinol 18 (AM18)
The amphidinol concentration is obtained using the product according to the invention obtained from Example 1. The amount of product according to the invention is adjusted to obtain the desired amphidinol concentrations.
The biomass of Saccharomyces populations was measured by optical density reading at 600 nm.

[2] = tested on: Brettanomyces bruxellensis NL6300; test: Minimum inhibitory concentration of peak 0 purified fraction, OD550 (Example 6); assay type: cell-based; settings: all concentrations (40 to 5 ppm) except the 5 ppm concentration of AM18
Method: The minimum inhibitory concentration of peak 0 (purified fraction) was determined for two strains of Brettanomyces bruxellensis (NL6293 and NL6300) according to the protocol described in Example 2 and FIG. 1B.
OD550 nm at T=0 days, T=3 days and T=6 days was measured after incubation of yeasts at 28° C. in the presence of YPD medium alone (negative control), methanol or in the presence of peak 0 at dilutions ranging from 1:32 to 1:256 corresponding to concentrations of 40 to 5 ppm of amphidinol 18. The product according to the invention at 0.25 g/L was also tested (positive control). Two replicas were produced.

[3] = tested on: three strains of Brettanomyces bruxellensis; test: Growth of three Brettanomyces bruxellensis strains with product or inactivated product, optical density at 550 nm (Example 4); assay type: cell-based; settings: conclusion from degradation and growth tests of Example 4
Method: Two replicas were made for each condition.
Yeast growth is measured by reading the optical density at 550 nanometers.

Saccharomyces cerevisiae [4] = test: Minimum inhibitory concentration of peak 0 purified fraction, OD550 (Example 7); assay type: cell-based; settings: 40 and 20 ppm of AM18 (tested 40 to 5 ppm); 2.5·10^4 CFU/mL
Method: The minimum inhibitory concentration (MIC) of peak 0 described in FIG. 5D was determined for Saccharomyces cerevisiae according to the protocol described in Example 2 and FIG. 1B.
(§1) OD550 nm at 0, 3 and 6 days (T0, T3 and T6) was measured after incubation at 28° C. of yeasts at 2.5·10^4 CFU/mL in the presence of YPD medium alone (negative control), methanol (MEtOH) or in the presence of peak 0 at a dilution of 1:32 to 1:256 corresponding to concentrations of 40 to 5 ppm of amphidinol 18. The product according to the invention at 0.25 g/L was also tested under the same conditions. Two replicas (rep1 and rep2) were produced.

[5] = Degradability of amphidinol 18 in light at room temperature, HPLC (Example 4); assay type: physicochemical; settings: product at one gram per liter in 70% ethanol
Excerpt: Regularly, the concentration of amphidinol 18 in the product according to the invention has been measured by high-performance liquid chromatography.

Acetobacter aceti = test: Minimum inhibitory concentration of peak 0 purified fraction, OD550 (Example 8); assay type: cell-based; settings: 40, 20 and 10 pp: of AM18 (tested 40 to 5 ppm); MRS medium, 10^5 CFU/mL
Method: The minimum inhibitory concentration (MIC) of peak 0 described in FIG. 5D was determined for Acetobacter aceti according to the protocol described in Example 2 and FIG. 1B.
as §1, with “10^5” for “2.5·10^4”, “MRS” for “YPD”, “carried out.” for “produced.”

[6] = Degradation kinetics of amphidinol 18 in wine, HPLC (Example 10); assay type: physicochemical; settings: product doses containing 60 ppm to 480 ppm amphidinol 18; up to day 44
Method: Different doses of the product according to the invention, containing from 60 ppm to 480 ppm of amphidinol 18, were inoculated in the wine. The amount of amphidinol 18 was determined by HPLC assay over time, up to day 44 (T44). The percentage of amphidinol 18 with respect to the initial dose was assessed over time.

CCO [Ethanol, reference compound]
yeast population growth (Saccharomyces cerevisiae [1]): no yeast population growth

C=C/C=C/CC/C=C/C=C/C=C/CC/C=C/[C@H](O)[C@H](O)[C@@H]1O[C@@H]([C@H](O)[C@H](O)C(=C)CC[C@@H](O)[C@H]2C[C@@H](O)[C@@H](O)[C@H]([C@@H](O)[C@H](O)/C=C(\C)CCC(O)CC(O)C(O)C(C)CC(O)C(O)CC(C)CCC(O)CC(=O)CC(O)CCCC(O)CCCCC(O)CO)O2)C[C@@H](O)[C@H]1O (stereo partly drawn) [amphidinol 18]
effectiveness against strain NL6300 [2]: effective
effectiveness for controlling and/or limiting the growth of Brettanomyces bruxellensis [3]: particularly effective
effectiveness against Saccharomyces cerevisiae (Saccharomyces cerevisiae [4]): effective
amphidinol 18 concentration of the product ([5]; T=0 days): 24 mg/L
amphidinol 18 concentration of the product ([5]; T=120 days): ~0 mg/L
effectiveness against Acetobacter aceti (Acetobacter aceti): effective
growth of Saccharomyces populations (Saccharomyces cerevisiae [1]; 3 types of fruit juice): completely preventing the growth
Average D0, optical density at 600 nm (Saccharomyces cerevisiae [1]; Apple juice, 9 ppm AM18): −0.1305
Average D1, optical density at 600 nm (Saccharomyces cerevisiae [1]; Apple juice, 9 ppm AM18): −0.1655
Average D2, optical density at 600 nm (Saccharomyces cerevisiae [1]; Apple juice, 9 ppm AM18): 0.1385
Average D3, optical density at 600 nm (Saccharomyces cerevisiae [1]; Apple juice, 9 ppm AM18): 0.6495
Average D0, optical density at 600 nm (Saccharomyces cerevisiae [1]; Apple juice, 18 ppm AM18): 0.0835
Average D1, optical density at 600 nm (Saccharomyces cerevisiae [1]; Apple juice, 18 ppm AM18): 0.0055
Average D2, optical density at 600 nm (Saccharomyces cerevisiae [1]; Apple juice, 18 ppm AM18): −0.0505
Average D3, optical density at 600 nm (Saccharomyces cerevisiae [1]; Apple juice, 18 ppm AM18): −0.091
Average D0, optical density at 600 nm (Saccharomyces cerevisiae [1]; Apple juice, 36 ppm AM18): −0.012
Average D1, optical density at 600 nm (Saccharomyces cerevisiae [1]; Apple juice, 36 ppm AM18): −0.007
Average D2, optical density at 600 nm (Saccharomyces cerevisiae [1]; Apple juice, 36 ppm AM18): −0.062
Average D3, optical density at 600 nm (Saccharomyces cerevisiae [1]; Apple juice, 36 ppm AM18): 0.3515
Average D0, optical density at 600 nm (Saccharomyces cerevisiae [1]; Grape juice, 9 ppm AM18): 0.0755
Average D1, optical density at 600 nm (Saccharomyces cerevisiae [1]; Grape juice, 9 ppm AM18): 0.0375
Average D2, optical density at 600 nm (Saccharomyces cerevisiae [1]; Grape juice, 9 ppm AM18): 0.0315
Average D3, optical density at 600 nm (Saccharomyces cerevisiae [1]; Grape juice, 9 ppm AM18): −0.084
Average D0, optical density at 600 nm (Saccharomyces cerevisiae [1]; Grape juice, 18 ppm AM18): 0.2065
Average D1, optical density at 600 nm (Saccharomyces cerevisiae [1]; Grape juice, 18 ppm AM18): 0.175
Average D2, optical density at 600 nm (Saccharomyces cerevisiae [1]; Grape juice, 18 ppm AM18): 0.154
Average D3, optical density at 600 nm (Saccharomyces cerevisiae [1]; Grape juice, 18 ppm AM18): 0.0515
Average D0, optical density at 600 nm (Saccharomyces cerevisiae [1]; Grape juice, 36 ppm AM18): −0.1485
Average D1, optical density at 600 nm (Saccharomyces cerevisiae [1]; Grape juice, 36 ppm AM18): −0.174
Average D2, optical density at 600 nm (Saccharomyces cerevisiae [1]; Grape juice, 36 ppm AM18): −0.2285
Average D3, optical density at 600 nm (Saccharomyces cerevisiae [1]; Grape juice, 36 ppm AM18): −0.2465
Average D0, optical density at 600 nm (Saccharomyces cerevisiae [1]; Multifruit juice, 9 ppm AM18): −0.006
Average D1, optical density at 600 nm (Saccharomyces cerevisiae [1]; Multifruit juice, 9 ppm AM18): −0.028
Average D2, optical density at 600 nm (Saccharomyces cerevisiae [1]; Multifruit juice, 9 ppm AM18): −0.0705
Average D3, optical density at 600 nm (Saccharomyces cerevisiae [1]; Multifruit juice, 9 ppm AM18): 0.0995
Average D0, optical density at 600 nm (Saccharomyces cerevisiae [1]; Multifruit juice, 18 ppm AM18): 0.002
Average D1, optical density at 600 nm (Saccharomyces cerevisiae [1]; Multifruit juice, 18 ppm AM18): −0.0365
Average D2, optical density at 600 nm (Saccharomyces cerevisiae [1]; Multifruit juice, 18 ppm AM18): −0.0155
Average D3, optical density at 600 nm (Saccharomyces cerevisiae [1]; Multifruit juice, 18 ppm AM18): 0.033
Average D0, optical density at 600 nm (Saccharomyces cerevisiae [1]; Multifruit juice, 36 ppm AM18): −0.009
Average D1, optical density at 600 nm (Saccharomyces cerevisiae [1]; Multifruit juice, 36 ppm AM18): 0.034
Average D2, optical density at 600 nm (Saccharomyces cerevisiae [1]; Multifruit juice, 36 ppm AM18): 0.008
Average D3, optical density at 600 nm (Saccharomyces cerevisiae [1]; Multifruit juice, 36 ppm AM18): 0.018
degradation of amphidinol 18 in wine [6]: degrades steadily
